These are literature values, as cited in US20040122104A1 (Collegium Pharmaceutical, Inc., priority 2002, published 2004).

Read-outs that look alike come from different tables or passages of the source.

For data set [1] the following is noted: in vivo.
For data set [2] the following is noted: compared with SSRIs and tricyclic antidepressants.
For data set [3] the following is noted: approximately 400,000 patients.
The conditions of data set [4]: intravenous, of 10 patients.
Test in data set [5]: not given
The source holds these as a separate data set.

The conditions of data set [6]: 75-100 mg/day twice daily for 8 weeks, 219 elderly patients.

Turning to `CN[C@H]1CC[C@@H](c2ccc(Cl)c(Cl)c2)c2ccccc21` [sertraline], in data set [1], the “top three adverse events associated with discontinuation of treatment” value was “nausea, insomnia, and diarrhea”.
Turning to `CCN(CC)C(=O)C1(c2ccccc2)CC1CN` (centres unmarked) [milnacipran, Milnacipran], the “disturbances of REM sleep” value in data set [2] is “only minor disturbances”. The toxicity in humans result in data set [3] was “non-toxic”. In data set [4], the “patients reporting transient nausea” value is recorded as “five”. For the same molecule, for the setting “liver metabolism”, the “metabolites as share of the concentration of the parent drug” value is “about 10%” and the “number of chemically identified metabolites” value is “ten”. For the same molecule, the “time in which oral doses are absorbed and extensively distributed in the body” value (oral) is 1 to 2 h. In data set [5] (1-7 scale (1 very much improved, 4 unchanged, 7 very much worse), patients who reached endpoint), the “global pain score, mean value” is given as 2.3. The “participants who failed the dose escalation” value in data set [5] (BID-IR group (twice daily immediate release)) is recorded as 6%. Moreover, the “participants who failed the dose escalation” value in data set [5] (QD-IR group (once daily immediate release)) is given as 19%. Further, the “only adverse event reported more frequently than for imipramine recipients” value in data set [6] is reported as “nausea”.
